The values that follow come from ChEMBL document CHEMBL4627278, “Discovery of 2-aminoisobutyric acid ethyl ester (AIBEE) phosphoramidate prodrugs for delivering nucleoside HCV NS5B polymerase inhibitors” (Bioorg Med Chem Lett, 2020).

Each structure is given as a SMILES string. Values after ≈ are worked out from the molar mass of the structure shown.

Data set [1] in a line: Prodrug conversion in human hepatocytes assessed as nucleotide triphosphate level at 100 uM incubated for 4 hrs followed by compound washout and further incubated in fresh media for 24 hrs. Type of data set: ADME, cell-based, Hepatocyte.
The nature of data set [2]: Prodrug conversion in human hepatocytes assessed as nucleotide triphosphate level at 100 uM after 4 hrs. Type of data set: ADME, cell-based, Hepatocyte.
Data set [3] in a line: Half life in human hepatocytes. Type of data set: ADME, cell-based, Hepatocyte.
Data set [4] is described as follows: Prodrug conversion in dog liver assessed as 2-((((2R,3R,4R,5R)-4-bromo-4-chloro-5-(2,4-dioxo-3,4-dihydropyrimidin-1(2H)-yl)-3-hydroxytetrahydrofuran-2-yl)methoxy)(hydroxy)phosphorylamino)-2-methylpropanoic acid level at 5 mg/kg, po after 4 hrs. Type of data set: ADME, organism-based, Canis lupus familiaris. The note with it: in vivo.
The nature of data set [5]: Prodrug conversion in dog liver assessed as 2-((((2R,3R,4R,5R)-4-bromo-4-chloro-5-(2,4-dioxo-3,4-dihydropyrimidin-1(2H)-yl)-3-hydroxytetrahydrofuran-2-yl)methoxy)(hydroxy)phosphorylamino)-2-methylpropanoic acid level at 5 mg/kg, po after 24 hrs. Type of data set: ADME, organism-based, Canis lupus familiaris. The note with it: in vivo.
Data set [6] is described as follows: Stability in human plasma assessed as parent compound remaining after 4 hrs. Type of data set: ADME, cell-free. As to conditions: read-out: Stability.
Data set [7] can be described thus: Prodrug conversion in dog liver assessed as nucleotide triphosphate level at 5 mg/kg, po co-dosed with 5 mg/kg sofosbuvir after 24 hrs. Type of data set: ADME, organism-based, Canis lupus familiaris. As to conditions: in vivo.
Data set [8] can be described thus: Intrinsic clearance in human hepatocytes. Type of data set: ADME, cell-based, Hepatocyte. As to conditions: read-out: CLH (converted).
The nature of data set [9]: Lipophilicity, log D of compound. Type of data set: physicochemical. As to conditions: octanol/water.
A short description of data set [10]: Prodrug conversion in dog liver assessed as 1-((2R,3R,4R,5R)-3-bromo-3-chloro-4-hydroxy-5-(hydroxymethyl)tetrahydrofuran-2-yl)pyrimidine-2,4(1H,3H)-dione level at 5 mg/kg, po after 4 hrs. Type of data set: ADME, organism-based, Canis lupus familiaris. As to conditions: in vivo.
A short description of data set [11]: Prodrug conversion in dog liver assessed as nucleotide triphosphate level at 5 mg/kg, po measured after 24 hrs. Type of data set: ADME, organism-based, Canis lupus familiaris. The note with it: in vivo.
A short description of data set [12]: Prodrug conversion in dog liver assessed as (2S)-2-((((2R,3R,4R,5R)-4-bromo-4-chloro-5-(2,4-dioxo-3,4-dihydropyrimidin-1(2H)-yl)-3-hydroxytetrahydrofuran-2-yl)methoxy)(hydroxy)phosphorylamino)propanoic acid level at 5 mg/kg, po after 24 hrs. Type of data set: ADME, organism-based, Canis lupus familiaris. The note with it: in vivo.
Data set [13] can be described thus: Prodrug conversion in dog liver assessed as nucleotide triphosphate level at 5 mg/kg, po after 4 hrs. The note with it: in vivo. Type of data set: ADME, organism-based, Canis lupus familiaris.
Data set [14] in a line: Prodrug conversion in dog liver assessed as (2S)-2-((((2R,3R,4R,5R)-4-bromo-4-chloro-5-(2,4-dioxo-3,4-dihydropyrimidin-1(2H)-yl)-3-hydroxytetrahydrofuran-2-yl)methoxy)(hydroxy)phosphorylamino)propanoic acid level at 5 mg/kg, po after 4 hrs. Type of data set: ADME, organism-based, Canis lupus familiaris. The note with it: in vivo.
The nature of data set [15]: Cytotoxicity against human HuH7 cells assessed as reduction in cell viability. The note with it: read-out: TD50 (the source's name). Type of data set: cell-based, Huh-7.
Data set [16] is described as follows: Stability in dog plasma assessed as parent compound remaining after 4 hrs. Type of data set: ADME, cell-free, Canis lupus familiaris. As to conditions: read-out: Stability.
Data set [17] can be described thus: Aqueous solubility of compound at pH 7.4. Type of data set: physicochemical. As to conditions: buffer.
Data set [18] is described as follows: Prodrug conversion in dog liver assessed as nucleotide triphosphate level at 5 mg/kg, po co-dosed with 5 mg/kg sofosbuvir after 4 hrs. Type of data set: ADME, organism-based, Canis lupus familiaris. The note with it: in vivo.
Data set [19] can be described thus: Prodrug conversion in dog liver assessed as 1-((2R,3R,4R,5R)-3-bromo-3-chloro-4-hydroxy-5-(hydroxymethyl)tetrahydrofuran-2-yl)pyrimidine-2,4(1H,3H)-dione level at 5 mg/kg, po after 24 hrs. Type of data set: ADME, organism-based, Canis lupus familiaris. As to conditions: in vivo.

A word on the half-life: it is how long it takes for the measured level to halve. The low end stands for fast loss, the high end for slow loss. In general, logD refers to lipophilicity at a set pH, counting ionised and neutral species. Read a high logD as higher lipophilicity. By solubility is commonly meant the dissolved amount per volume that the medium holds. Read a low solubility as little dissolved substance. With `CC(C)OC(=O)[C@H](C)N[P@](=O)(OC[C@H]1O[C@@H](n2ccc(=O)[nH]c2=O)[C@](Cl)(Br)[C@@H]1O)Oc1ccccc1`, the Drug metabolism was 22 µM in data set [1]; 110 µM in data set [2]; 0.066 µg/g in data set [4]; 0.006 µg/g in data set [5]; 1.02 µg/g in [7]; 1.469 µg/g in [10]. The Drug metabolism in data set [11] was found to be 0.049 µg/g; in [12], 0.006 µg/g; in data set [13], 0.088 µg/g; in data set [14], 0.066 µg/g; in data set [18], 1.59 µg/g; in [19], 0.011 µg/g. Moreover, the half-life in data set [3] came to 15 min. The remaining at 4 h in data set [6] and in [16] was 92% in each case. In addition, in data set [8], the CLint scaled was 273 mL/min/kg. The logD in data set [9] is 3.51. Further, the CC50 in [15] was 62 µM. The amount in solution in [17] (solubility) came to 23 µM (≈ 14 µg/mL).
